# Tests used:
# Type in all cases: in vivo
# Settings in all cases: 20 DAT
# Anthemis arvensis = assay: greenhouse pre-emergence herbicidal activity on ANTAR
# Experimental: (§1) The test plants have been seeded, separately for each species, in plastic containers in sandy loamy soil containing 5% of organic matter.
# (§2) The containers were irrigated gently to promote germination and growth and subsequently covered with transparent plastic hoods until the plants had rooted.
# (§3) The plants have been cultivated due to their individual requirements at 10-25° C. and 20-35° C. The plants were irrigated due to their necessity.
# (§4) The racemic mixture (±)-2-exo-(2-Methylbenzyloxy)-1-methyl-4-isopropyl-7-oxabicyclo[2.2.1]heptane was used as herbicide A and formulated as emulsifiable concentrates with an active ingredient concentration of 50 g/l, 100 g/l or 750 g/l respectively.
# (§5) Acetochlor (herbicide B.1) was used as an encapsulated (CS) formulation having an active ingredient concentration of 400 g/l+67 g/l dichlormid as safener.
# (§6) Pretilachlor (herbicide B.2) was used as emulsifiable concentrate (EC) formulation having an active ingredient concentration of 120 g/l.
# (§7) In the following experiments, the herbicidal activity for the individual herbicidal compositions (solo and mixture applications) was assessed 20 days after treatment (DAT).
# (§8) The evaluation for the damage on undesired weeds caused by the chemical compositions was carried out using a scale from 0 to 100%, compared to the untreated control plants. Here, 0 means no damage and 100 means complete destruction of the plants.
# (§9) E=X+Y−(X·Y/100) where X=effect in percent using herbicide A at an application rate a; • Y=effect in percent using herbicide B at application rate b; • E=expected effect (in %) of herbicide A+herbicide B at application rates a+b.
# (§10) The value E corresponds to the effect (plant damage or injury) which is to be expected if the activity of the individual compounds is additive. If the observed effect is higher than the value E calculated according to the Colby equation, a synergistic effect is present.
# (§11) Tables 1 and 2 below relate to the herbicidal activity, in greenhouse trials, of the individual actives and the combinations applied at different rates and ratios, in pre-emergence application at 20 days after treatment (DAT).
# Lolium multiflorum = assay: greenhouse pre-emergence herbicidal activity on LOLMU
# Experimental: as §1, §2, §3, §4, §5, §6, §7, §8, §9, §10, §11
# Alopecurus myosuroides = assay: greenhouse pre-emergence herbicidal activity on ALOMY
# Experimental: as §1, §2, §3, §4, §5, §6, §7, §8, §9, §10, §11
# Stellaria media = assay: greenhouse pre-emergence herbicidal activity on STEME
# Experimental: as §1, §2, §3, §4, §5, §6, §7, §8, §9, §10, §11
# Chenopodium album = assay: greenhouse pre-emergence herbicidal activity on CHEAL
# Experimental: as §1, §2, §3, §4, §5, §6, §7, §8, §9
# (§12) The value E corresponds to the effect (plant damage or injury) which is to be expected if the activity of the individual compounds is additive. If the observed effect is higher than the value E calculated according to the Colby equation, a synergistic effect is present. […]
# Avena fatua = assay: greenhouse pre-emergence herbicidal activity on AVEFA
# Experimental: as §1, §2, §3, §4, §5, §6, §7, §8, §9, §10, §11
# Abutilon theophrasti = assay: greenhouse pre-emergence herbicidal activity on ABUTH
# Experimental: as §1, §2, §3, §4, §5, §6, §7, §8, §9, §10, §11
# Polygonum convolvulus = assay: greenhouse pre-emergence herbicidal activity on POLCO
# Experimental: as §1, §2, §3, §4, §5, §6, §7, §8, §9, §10, §11
# Geranium dissectum = assay: greenhouse pre-emergence herbicidal activity on GERDI
# Experimental: as §1, §2, §3, §4, §5, §6, §7, §8, §9, §10, §11
# Echinochloa crus-galli = assay: greenhouse pre-emergence herbicidal activity on ECHCG
# Experimental: as §1, §2, §3, §4
# Acetochlor (herbicide B.1) was used as an encapsulated (CS) formulation having an active ingredient concentration of 400 g/l+67 g/l dichlormid as safener. […]
# In the following experiments, the herbicidal activity for the individual herbicidal compositions (solo and mixture applications) was assessed 20 days after treatment (DAT). […]
# as §12
# Setaria viridis = assay: greenhouse pre-emergence herbicidal activity on SETVI
# Experimental: as §1, §2, §3, §4, §5, §6, §7, §8, §9, §10, §11
# Sorghum halepense = assay: greenhouse pre-emergence herbicidal activity on SORHA
# Experimental: as §1, §2, §3, §4, §5, §6, §7, §8, §9, §10, §11
molecule,measurement,setting,value
"CCOCN(C(=O)CCl)c1c(C)cccc1CC [acetochlor, 2-chloro-N-(ethoxymethyl)-N-(2-ethyl-6-methylphenyl)acetamide]","herbicidal activity, solo application acetochlor",Anthemis arvensis; 63 g ai/ha,35%
same,"herbicidal activity, solo application acetochlor",Anthemis arvensis; 125 g ai/ha,70%
same,"herbicidal activity, solo application acetochlor",Anthemis arvensis; 250 g ai/ha,80%
same,"herbicidal activity, solo application acetochlor",Anthemis arvensis; 500 g ai/ha,90%
same,"herbicidal activity, solo application acetochlor",Lolium multiflorum; 63 g ai/ha,70%
same,"herbicidal activity, solo application acetochlor",Lolium multiflorum; 250 g ai/ha,95%
same,"herbicidal activity, solo application acetochlor",Alopecurus myosuroides; 63 g ai/ha,50%
same,"herbicidal activity, solo application acetochlor",Stellaria media; 250 g ai/ha,98%
same,"herbicidal activity, solo application acetochlor",Chenopodium album; 63 g ai/ha,40%
same,"herbicidal activity, solo application acetochlor",Avena fatua; 63 g ai/ha,20%
same,"herbicidal activity, solo application acetochlor",Avena fatua; 125 g ai/ha,70%
same,"herbicidal activity, solo application acetochlor",Avena fatua; 250 g ai/ha,70%
same,"herbicidal activity, solo application acetochlor",Avena fatua; 500 g ai/ha,80%
same,"herbicidal activity, solo application acetochlor",Abutilon theophrasti; 63 g ai/ha,0%
same,"herbicidal activity, solo application acetochlor",Abutilon theophrasti; 125 g ai/ha,0%
same,"herbicidal activity, solo application acetochlor",Polygonum convolvulus; 125 g ai/ha,0%
same,"herbicidal activity, solo application acetochlor",Polygonum convolvulus; 250 g ai/ha,20%
same,"herbicidal activity, solo application acetochlor",Polygonum convolvulus; 500 g ai/ha,40%
"CCCOCCN(C(=O)CCl)c1c(CC)cccc1CC [pretilachlor, 2-chloro-N-(2,6-diethylphenyl)-N-(2-propoxyethyl)acetamide]","herbicidal activity, solo application pretilachlor",Anthemis arvensis; 31.3 g ai/ha,20%
same,"herbicidal activity, solo application pretilachlor",Anthemis arvensis; 63 g ai/ha,20%
same,"herbicidal activity, solo application pretilachlor",Anthemis arvensis; 125 g ai/ha,30%
same,"herbicidal activity, solo application pretilachlor",Anthemis arvensis; 250 g ai/ha,30%
same,"herbicidal activity, solo application pretilachlor",Lolium multiflorum; 31.3 g ai/ha,0%
same,"herbicidal activity, solo application pretilachlor",Lolium multiflorum; 63 g ai/ha,0%
same,"herbicidal activity, solo application pretilachlor",Lolium multiflorum; 125 g ai/ha,25%
same,"herbicidal activity, solo application pretilachlor",Geranium dissectum; 31.3 g ai/ha,0%
same,"herbicidal activity, solo application pretilachlor",Geranium dissectum; 63 g ai/ha,0%
same,"herbicidal activity, solo application pretilachlor",Geranium dissectum; 125 g ai/ha,20%
same,"herbicidal activity, solo application pretilachlor",Echinochloa crus-galli; 31.3 g ai/ha,20%
same,"herbicidal activity, solo application pretilachlor",Alopecurus myosuroides; 63 g ai/ha,40%
same,"herbicidal activity, solo application pretilachlor",Alopecurus myosuroides; 125 g ai/ha,40%
same,"herbicidal activity, solo application pretilachlor",Setaria viridis; 31.3 g ai/ha,25%
same,"herbicidal activity, solo application pretilachlor",Setaria viridis; 63 g ai/ha,50%
same,"herbicidal activity, solo application pretilachlor",Setaria viridis; 125 g ai/ha,60%
same,"herbicidal activity, solo application pretilachlor",Stellaria media; 31.3 g ai/ha,30%
same,"herbicidal activity, solo application pretilachlor",Stellaria media; 63 g ai/ha,25%
same,"herbicidal activity, solo application pretilachlor",Stellaria media; 125 g ai/ha,30%
same,"herbicidal activity, solo application pretilachlor",Chenopodium album; 31.3 g ai/ha,30%
same,"herbicidal activity, solo application pretilachlor",Avena fatua; 63 g ai/ha,15%
same,"herbicidal activity, solo application pretilachlor",Avena fatua; 125 g ai/ha,20%
same,"herbicidal activity, solo application pretilachlor",Avena fatua; 250 g ai/ha,25%
same,"herbicidal activity, solo application pretilachlor",Sorghum halepense; 63 g ai/ha,20%
same,"herbicidal activity, solo application pretilachlor",Sorghum halepense; 125 g ai/ha,30%
same,"herbicidal activity, solo application pretilachlor",Sorghum halepense; 250 g ai/ha,55%
same,"herbicidal activity, solo application pretilachlor",Polygonum convolvulus; 63 g ai/ha,15%
same,"herbicidal activity, solo application pretilachlor",Polygonum convolvulus; 125 g ai/ha,20%
(±)-2-exo-(2-Methylbenzyloxy)-1-methyl-4-isopropyl-7-oxabicyclo[2.2.1]heptane [herbicide A],"herbicidal activity, solo application herbicide A",Anthemis arvensis; 31.25 g ai/ha,0%
same,"herbicidal activity, solo application herbicide A",Anthemis arvensis; 62.5 g ai/ha,0%
same,"herbicidal activity, solo application herbicide A",Anthemis arvensis; 125 g ai/ha,0%
same,"herbicidal activity, solo application herbicide A",Anthemis arvensis; 250 g ai/ha,30%
same,"herbicidal activity, solo application herbicide A",Lolium multiflorum; 31.25 g ai/ha,60%
same,"herbicidal activity, solo application herbicide A",Lolium multiflorum; 62.5 g ai/ha,75%
same,"herbicidal activity, solo application herbicide A",Lolium multiflorum; 125 g ai/ha,85%
same,"herbicidal activity, solo application herbicide A",Geranium dissectum; 31.25 g ai/ha,50%
same,"herbicidal activity, solo application herbicide A",Geranium dissectum; 62.5 g ai/ha,60%
same,"herbicidal activity, solo application herbicide A",Geranium dissectum; 125 g ai/ha,60%
same,"herbicidal activity, solo application herbicide A",Echinochloa crus-galli; 31.25 g ai/ha,98%
same,"herbicidal activity, solo application herbicide A",Alopecurus myosuroides; 31.25 g ai/ha,98%
same,"herbicidal activity, solo application herbicide A",Alopecurus myosuroides; 62.5 g ai/ha,98%
same,"herbicidal activity, solo application herbicide A",Alopecurus myosuroides; 125 g ai/ha,98%
same,"herbicidal activity, solo application herbicide A",Setaria viridis; 31.25 g ai/ha,90%
same,"herbicidal activity, solo application herbicide A",Setaria viridis; 62.5 g ai/ha,98%
same,"herbicidal activity, solo application herbicide A",Setaria viridis; 125 g ai/ha,98%
same,"herbicidal activity, solo application herbicide A",Stellaria media; 31.25 g ai/ha,30%
same,"herbicidal activity, solo application herbicide A",Stellaria media; 62.5 g ai/ha,30%
same,"herbicidal activity, solo application herbicide A",Stellaria media; 125 g ai/ha,40%
same,"herbicidal activity, solo application herbicide A",Chenopodium album; 31.25 g ai/ha,40%
same,"herbicidal activity, solo application herbicide A",Avena fatua; 31.25 g ai/ha,0%
same,"herbicidal activity, solo application herbicide A",Avena fatua; 62.5 g ai/ha,0%
same,"herbicidal activity, solo application herbicide A",Avena fatua; 125 g ai/ha,25%
same,"herbicidal activity, solo application herbicide A",Avena fatua; 250 g ai/ha,35%
same,"herbicidal activity, solo application herbicide A",Sorghum halepense; 62.5 g ai/ha,80%
same,"herbicidal activity, solo application herbicide A",Sorghum halepense; 125 g ai/ha,95%
same,"herbicidal activity, solo application herbicide A",Sorghum halepense; 250 g ai/ha,98%
same,"herbicidal activity, solo application herbicide A",Abutilon theophrasti; 31.25 g ai/ha,30%
same,"herbicidal activity, solo application herbicide A",Abutilon theophrasti; 62.5 g ai/ha,60%
same,"herbicidal activity, solo application herbicide A",Polygonum convolvulus; 62.5 g ai/ha,0%
same,"herbicidal activity, solo application herbicide A",Polygonum convolvulus; 125 g ai/ha,0%
same,"herbicidal activity, solo application herbicide A",Polygonum convolvulus; 250 g ai/ha,15%
